Data from publication PMC9181126, “Design, Synthesis, Molecular Docking Analysis and Biological Evaluations of 4-[(Quinolin-4-yl)amino]benzamide Derivatives as Novel Anti-Influenza Virus Agents” (International Journal of Molecular Sciences, 2022).

Assays:
PA-PB1 endonuclease [1] = experiment: Experimental PA-PB1 inhibitory activity of literature inhibitors (training and test set); type: biochemical, influenza virus; conditions: class of the experimental IC50
PA-PB1 endonuclease [2] = tested on: PA-PB1 endonuclease; parameters: method as in supplement 1-7; conditions: training and test set compounds collected from literature; ref supplement 1-7; read-out: IC50 value Experimental (PA-PB1 endonuclease inhibitors); cited from earlier work

Structure (SMILES) | Activity scale Experimental (PA-PB1 endonuclease [1]) | IC50 (PA-PB1 endonuclease [2]) [µM]
COc1ccccc1C(=O)Nc1sc2c(c1C(=O)Nc1ccccn1)CCCCC2 [Compound H11] | +++ (+++, IC50 10 to 100 μM (active)) | 22
O=C(Nc1sc2c(c1C(=O)Nc1ccc(Cl)cc1)CCCCC2)c1ccccc1O [Compound H12] | +++ (+++, IC50 10 to 100 μM (active)) | 18
O=C(Nc1sc2c(c1C(=O)Nc1ccccn1)CCCCC2)c1ccc(O)cc1 [Compound H13] | +++ (+++, IC50 10 to 100 μM (active)) | 26
Cc1cc(-c2ccccc2)nc2c(C(=O)Nc3sc4c(c3C(N)=O)CCC4)cnn12 [Compound H15] | +++ (+++, IC50 10 to 100 μM (active)) | 44.8
NC(=O)c1c(NC(=O)c2cnn3c(C(F)F)cc(-c4ccccc4)nc23)sc2c1CCC2 [Compound H16] | +++ (+++, IC50 10 to 100 μM (active)) | 25.4
CCCCOc1ccc(C(=O)Nc2nc3n(n2)C(c2ccccc2)C=C(C)N3)cc1 (stereo not shown) [Compound H18] | +++ (+++, IC50 10 to 100 μM (active)) | 37
Cc1cc(-c2ccccc2)nc2nc(NC(=O)c3ccccc3)nn12 [Compound H20] | +++ (+++, IC50 10 to 100 μM (active)) | 26
CCCOc1ccc(C(=O)Nc2nc3n(n2)C(c2ccccc2)C=C(C)N3)cc1 (stereo not shown) [Compound H21] | +++ (+++, IC50 10 to 100 μM (active)) | 40
CC1=CC(c2ccccc2)n2nc(NC(=O)c3ccc(OC(C)C)cc3)nc2N1 (stereo not shown) [Compound H22] | +++ (+++, IC50 10 to 100 μM (active)) | 75
CCOc1ccc(C(=O)Nc2nc3n(n2)C(c2ccccc2)C=C(C)N3)cc1 (stereo not shown) [Compound H23] | ++ (++, IC50 100 to 150 μM (moderately active)) | 139
CC1=CC(c2ccccc2)n2nc(NC(=O)c3ccccc3F)nc2N1 (stereo not shown) [Compound H25] | + (+, IC50 >150 μM (inactive)) | 185
